Test results from ChEMBL document CHEMBL5113462, “Synthesis and evaluation of inhibitors of Mycobacterium tuberculosis UGM using bioisosteric replacement” (Bioorg Med Chem, 2022).

What follows are compounds tested on Mycobacterium tuberculosis variant bovis (assay: Antimycobacterial activity against Mycobacterium tuberculosis variant bovis BCG for 7 days by resazurin-based microdilution assay). Conditions: 168 h, time 7 day.
Format: functional

Compared with `CC[C@@H](CO)NCCN[C@@H](CC)CO` [ETHAMBUTOL], `O=C(/C=C/c1ccccc1)N[C@@H](Cc1ccc(I)cc1)C(=O)O` is 48-fold higher in MIC: 4.9 µM for the first, 237 µM for the second.

Compared with `O=C(/C=C/c1ccccc1)N[C@@H](Cc1ccc(Cl)cc1)C(=O)O`, `O=C(/C=C/c1ccccc1)N[C@@H](Cc1ccc(Br)cc1)C(=O)O` is 1.8-fold higher in MIC: 606 µM for the first, 1070 µM for the second.

`O=C(/C=C/c1ccccc1)N[C@@H](Cc1ccc([N+](=O)[O-])cc1)C(=O)O` was tested, and the MIC was 1270 µM.

`O=C(/C=C/c1ccccc1)N[C@@H](Cc1ccccc1)C(=O)O` showed an MIC of over 400 µg/mL.
